Data set [1] deals with PC-12. The data set is described as follows: Neuritogenic activity in rat PC-12 cells assessed as induction of neurite outgrowth at 40 uM incubated for 6 days by microscopic analysis. The data set is classed as functional.
In data set [2] the test system is PC-12. The data set is described as follows: Neuritogenic activity in rat PC-12 cells assessed as inhibition of neurite outgrowth at 40 uM incubated for 6 days in presence of K252a by microscopic analysis. It counts as functional, cell-based. To be noted: time 6.0 day.
In data set [3] the test system is PC-12. The data set is described as follows: Neuritogenic activity in rat PC-12 cells assessed as inhibition of neurite outgrowth at 1 uM incubated for 6 days in presence of SB203580 by microscopic analysis. The data set is classed as functional, cell-based. Particulars: time 6.0 day.
Data set [4] has as its system Mus musculus. The experiment in a line: Cognitive enhancing effect in SAMP8 mouse assessed as longer exploration time at 10 mg/kg, sc for 2 weeks by Novel object recognition test. It counts as functional, organism-based.
The nature of data set [5]: Drug uptake in ICR mouse blood at 10 mg/kg,sc and measured at 60 mins by LC-MS analysis. It counts as ADME, organism-based. To be noted: read-out: Drug uptake.
Data set [6] relates to Mus musculus. The data set is described as follows: Cognitive enhancing effect in aged ICR mouse assessed as longer exploration time at 10 mg/kg, sc for 2 weeks by novel object recognition test. The data set is classed as functional, organism-based.
The test system of data set [7] is Mus musculus. The experiment in a line: Cognitive enhancing effect in aged ICR mouse assessed as improvement of spontaneous alternation behavior by analyzing entry to different arm at 10 mg/kg, sc for 2 weeks by Y-maze test. It counts as functional, organism-based.
Data set [8] relates to PC-12. The data set is described as follows: Neuritogenic activity in rat PC-12 cells assessed as effect on Cdc42 activation at 40 uM incubated for 8 to 12 hrs by Western blot analysis. The data set is classed as functional, cell-based. Particulars: time 8-12 hrs. For orientation: A western blot detects proteins with antibodies after separation by electrophoresis.
Data set [9] is described as follows: Drug uptake in ICR mouse brain at 10 mg/kg,sc and measured at 60 mins by LC-MS analysis. To be noted: read-out: Drug uptake. The data set is classed as ADME, organism-based.
Data set [10] concerns PC-12. The experiment in a line: Neuritogenic activity in rat PC-12 cells assessed as induction of neurite outgrowth at 10 to 40 uM incubated for 6 days by microscopic analysis. The data set is classed as functional, cell-based. Particulars: dose 10-40 µM, time 6.0 day.
Data set [11] deals with PC-12. The data set is described as follows: Neuritogenic activity in rat PC-12 cells assessed as effect on Ras activation at 40 uM incubated for 2 hrs by Western blot analysis. It counts as functional, cell-based.
Data set [12] deals with PC-12. The experiment in a line: Neuritogenic activity in rat PC-12 cells assessed as inhibition of neurite outgrowth at 40 uM incubated for 6 days in presence of PD98059 by microscopic analysis. Particulars: time 6.0 day. The data set is classed as functional, cell-based.
The subject of data set [13] is PC-12. The experiment in a line: Neuritogenic activity in rat PC-12 cells assessed as effect on TrkA phosphorylation at 40 uM incubated for 4 hrs by Western blot analysis. The data set is classed as functional, cell-based.
The test system of data set [14] is PC-12. The data set is described as follows: Neuritogenic activity in rat PC-12 cells assessed as decrease in ERK phosphorylation at 40 uM and incubated for 1 to 2 hrs by Western blot analysis. To be noted: time 1-2 hrs. It counts as functional, cell-based.
Data set [15] is described as follows: Toxicity in ICR mouse assessed as effect on body weight at 1 to 10 mg/kg, sc for 14 days. The data set is classed as organism-based. To be noted: in vivo, 336 h, dose 1-10 mg/kg, time 14 day.
Data set [16] relates to Mus musculus. The experiment in a line: Cognitive enhancing effect in SAMP8 mouse assessed as improvement of spontaneous alternation behavior by analyzing entry to different arm at 1 to 10 mg/kg, sc for 2 weeks by Y-maze test. It counts as functional, organism-based. To be noted: dose 1-10 mg/kg.
Data set [17] relates to PC-12. The data set is described as follows: Neuritogenic activity in rat PC-12 cells assessed as inhibition of neurite outgrowth at 40 uM incubated for 6 days in presence of […] by microscopic analysis. It counts as functional, cell-based. Particulars: time 6.0 day.
A short description of data set [18]: Drug uptake in ICR mouse blood at 10 mg/kg,sc and measured upto 120 mins by LC-MS analysis. It counts as ADME, organism-based. To be noted: read-out: Drug uptake.
Data set [19] deals with PC-12. The data set is described as follows: Neuritogenic activity in rat PC-12 cells overexpressing TrKA assessed as inhibition of neurite outgrowth at 40 uM incubated for 6 days by microscopic analysis. The data set is classed as functional, cell-based. Particulars: time 6.0 day.
Data set [20] deals with PC-12. The data set is described as follows: Cytotoxicity against rat PC-12 cells assessed as reduction in cell viability upto 40 uM. It counts as toxicity, cell-based. To be noted: pc-12, 40 µM.
Data set [21] is described as follows: Drug uptake in ICR mouse brain at 10 mg/kg,sc and measured upto 120 mins by LC-MS analysis. The data set is classed as ADME, organism-based. To be noted: read-out: Drug uptake.
Data set [22] relates to Mus musculus. The data set is described as follows: Cognitive enhancing effect in SAMP8 mouse assessed as effect on locomotion by analyzing entry to different arm at 1 to 10 mg/kg, sc for 2 weeks by Y-maze test. The data set is classed as functional, organism-based. To be noted: dose 1-10 mg/kg.
The test system of data set [23] is PC-12. The data set is described as follows: Neuritogenic activity in rat PC-12 cells assessed as induction of neurite outgrowth at 40 uM incubated for 1 to 6 days by microscopic analysis. It counts as functional, cell-based. Particulars: time 1-6 day, TDE = time-dependent effect.
The subject of data set [24] is PC-12. The experiment in a line: Neuritogenic activity in rat PC-12 cells assessed as increase in p38 phosphorylation at 40 uM and measured upto 24 hrs by Western blot analysis. The data set is classed as functional, cell-based.

The results in this text go back to ChEMBL document CHEMBL5236652, “Neuritogenic steroid glycosides from crown-of-thorns starfish: Possible involvement of p38 mitogen-activated protein kinase and attenuation of cognitive impairment in senescence-accelerated mice (SAMP8) by peripheral administration” (Bioorg Med Chem, 2023).

The structures appear in SMILES notation. The source made the active and inactive calls. The rule behind the calls is not given here.

With `CO[C@@H]1[C@@H](O)[C@H](OC[C@@H](CC[C@@H](C)[C@H]2[C@@H](O)[C@H](O)[C@@H]3[C@]2(C)CC[C@H]2[C@@]3(O)C[C@@H](O)C3=C[C@@H](O[C@@H]4OC[C@@H](O)[C@H](O)[C@H]4OC)CC[C@@]32C)C(C)C)OC[C@H]1O`, in the data set with PC-12 [1] (time 6 day), the Activity turned out to be 43%.
On to `CO[C@H]1[C@H](O[C@@H]2C=C3[C@H](O)C[C@@]4(O)[C@@H]5[C@@H](O)[C@H](O)[C@H]([C@H](C)CC[C@H](CO)C(C)C)[C@@]5(C)CC[C@@H]4[C@@]3(C)CC2)OC[C@@H](O)[C@@H]1O`, for which the outcome with PC-12 [1] (time 6.0 day) was inactive.
`CO[C@H]1[C@H](O[C@@H]2C=C3[C@H](O)C[C@@]4(O)[C@@H]5[C@@H](O)[C@H](O)[C@H]([C@H](C)CC[C@H](CO[C@@H]6OC[C@@H](O)[C@H](O)[C@H]6O)C(C)C)[C@@]5(C)CC[C@@H]4[C@@]3(C)CC2)OC[C@@H](O)[C@@H]1O`: the result in the data set on PC-12 [2], in the data set with PC-12 [3], in the data set with PC-12 [11], with PC-12 [12], in the data set with PC-12 [13] and in the data set with PC-12 [17] was inactive. The result with PC-12 [19] and in the data set with Mus musculus [22] was inactive. Further, the result in the data set with Mus musculus [4], with Mus musculus [6], in the data set with Mus musculus [7], with PC-12 [8], with PC-12 [14] and in the data set on Mus musculus [16] was Active. Further, the outcome in the data set with PC-12 [24] was Active. In addition, the concentration at 1 h in data set [5] is 2 µg/mL; in [9] it was 30 ng/g. The Activity result with PC-12 [10] is “Dose-Dependent Effect”; in data set [15], “Non-Toxic”; in the data set with PC-12 [20], “Non-Toxic”; with PC-12 [1] (time 6 day), 43%; with PC-12 [23] it was “Tde”. For the same molecule, the concentration at 2 h in [18] worked out at 0.0077 µg/mL; in data set [21] it was 5 ng/g.
